Entries after “also recorded” stand apart in the source; their conditions may differ.
Experiments:
[1] = test system: angiotensin II (AII)-induced AAA; test: AII-induced AAA mouse model, post-treatment; format: in vivo; conditions: injection every other day for two weeks, FIG. 2E
normal SMCs (NC) = test: Caspase 3 activity assay on normal SMCs; format: cell-based; conditions: FIG. 2I
Protocol: FIGS. 2A-2L. (a) Cytotoxicity assay of normal smooth muscle cells (NS) and senescent smooth muscle cells (SMCs). Replicative senescent SMCs (RS) and premature senescent SMCs, stimulated by H2O2 (HP), arsenic (Ars), and Nutlin 3a (Nut) treatment were treated with βHB, s-βHB, and ABT-737. (b) Flow cytometry analysis of apoptosis by βHB or s-βHB in radiation (10 Gy)-induced senescent SMC. (c) Quantitation of apoptotic cell and senescent cell after treating βHB and s-βHB in radiation-induced senescent SMC. (d) Representative aorta image of AII-infused mice with post-treatment of ABT-737, βHB and s-βHB. (e) External diameter of abdominal aorta infused with AII and post-treated with ABT-737 βHB and s-βHB. (f) SA-βGal activity assay of the whole aorta infused with AII, and post-treated with ABT-737, KD, or KE. (g) Quantitation of senescent area on aorta of AII-infused mice, and post-treated with KD, KE and ABT-737. (h) TUNEL assay on the abdominal aorta of AII infused mice, and treated with ABT-737, βHB, or s-βHB. SM-α Actin (SMA) and DAPI are co-stained after TUNEL reaction. (i) Caspase 3 activity assay on normal SMCs (NC) treated with βHB, or s-βHB, and ABT-737 comparing to normal cells pretreated with Nutlin-3a. (j) Caspase 3 activity assay on senescent SMCs (SNC) treated with βHB, or s-βHB, and ABT-737 compared to senescent cells pretreated with pifithrin-α. (k) Western blot analysis for p53 and puma expression on abdominal aorta tissue from mice treated with AII or KE. (I) Immunohistochemistry staining for puma expression on abdominal aorta infused by AII and post-treated with KE.
To overcome the anti-apoptotic barrier of senescence cells, senolytics usually target p53/Bcl2 cascades. Moreover, p53 is considered as a barrier to prevent apoptosis in senescence cells. Therefore, it was investigated if βHB-mediated apoptosis is p53 dependent. […] To further validate p53 dependent apoptosis on AAA, p53 activation and puma expression were investigated. […] In addition, inflammatory response accompanying the apoptosis of senescence cells was observed specifically in the abdominal aorta tissue, while systemic inflammation decreased during ketotherapy (FIGS. 10A-F). […] Ketotherapy can lower the blood pressure caused by AII infusion, which is not the case with ABT-737 (FIGS. 10H-J).

[2] = test system: lysine β-hydroxybutyrylation (KβHB); test: Immunoblotting of lysine β-hydroxybutyrylation (KβHB) in SMCs; format: cell-based; conditions: FIG. 15A
Description: FIGS. 15A-15B show immunoblotting of lysine β-hydroxybutyrylation (KβHB) on whole cell lysate (WCL) and fractionated lysate. (b) Immunofluorescent staining of SMA, KβHB, and DAPI on abdominal aorta.
Since epigenetic regulation directly affects the activity of transcriptional factors, such as Oct4, we evaluated if βHB is related to histone remodeling. βHB is a substrate of acyltransferase resulting in β-hydroxybutyrylation, a unique posttranslational modification that controls protein activity or gene expression. We hypothesize that β-hydroxybutyrylation on histone induces histone remodeling facilitating cellular reprogramming. To determine that β-hydroxybutyrylation (KβHB) is observed in senescent SMCs or aneurysms, we applied a specific antibody detecting KβHB modified protein. […] Together, it is supposed that β-hydroxybutyryl histone triggers the reprogramming process of senescent SMCs by regulating Oct4, which is overexpressed in aneurysms.

CaCl2-induced AAA = CaCl2-induced AAA animal model, post-treatment; format: in vivo, mouse
Protocol: FIGS. 5A-5J. (a) Representative image of aorta which developed CaCl2)-induced AAA, and post-treated with KD, KE, βHB, s-βHB, or ABT-737. KD is provided to mice for 4 weeks, KE is administrated with drinking water, βHB, s-βHB or ABT-737 are IP injected for 2 weeks with 48h intervals. (b) Incidence of AAA by CaCl2) treatment and proportion of mice recovered from the AAA after post-treatment of KD, KE, βHB and s-βHB for 2 weeks. (c) Time-dependent observation of inner diameter after CaCl2) treatment and post-treatment of KD or KE (28˜56 days after surgery). (d) Comparison of ultrasound images of CaCl2)-induced AAA to the identical aorta post-treated with βHB for 2 weeks. (e) H&E staining of aorta from the mice developed with CaCl2)-induced AAA, and post-treated with KD, KE, βHB, and s-βHB. (f) SA β-Gal activity assay on aorta which developed CaCl2)-induced AAA, and post-treated with KD, KE, βHB, s-βHB, or ABT-737. (g) Quantitation of senescent area on aorta developed with CaCl2)-induced AAA, and post-treated with KD, KE, βHB, s-βHB. (h) Verhoeff Van Gieson/EVG staining of abdominal aorta developed with CaCl2)-induced AAA, post-treated with KD, KE, βHB and s-βHB. (i) Average number of elastic fibers on abdominal aorta presented at FIG. 5H. (j) Measurement of Pulse Wave Velocity (PWV) on CaCl2)-infused mice with post-treatment of KD, KE, βHB, and s-βHB.
To confirm the possibility that the therapeutic effect of βHB on AAA is not only applied to AII-induced AAA, the CaCl2)-induced AAA animal model was also examined as well (FIG. 5A).
To further validate the therapeutic efficacy of s-βHB on aneurysms, we used a CaCl2-induced AAA animal model as well as an angiotensin II infusion model. […] Two-way ANOVA, s-βHB vs βHB, #P<0.01, n=10. Since the elimination of senescent SMCs is critical for the recovery of AAA, we investigated that s-βHB is also effective to remove senescent cells in CaCl2)-induced aneurysms. […] Student's T-test for s-βHB vs βHB, ^#P<0.05, n=8.

C[C@@H](O)CC(=O)O [βHB, (R)-3-Hydroxybutyrate]
external diameter of the abdominal aorta [1]: significantly reduced
apoptosis in normal cells after p53 stabilization (normal SMCs (NC); after p53 stabilization by Nutlin 3a): triggers apoptosis
apoptosis in normal cells (NC) (normal SMCs (NC); without Nutlin 3a): did not induce apoptosis
KβHB modified proteins, Western blot [2]: increases KβHB modified proteins
abnormal curvature on aortic wall (ultrasound) (CaCl2-induced AAA; FIG. 5D): repaired abnormal curvature on aortic wall
recovery from CaCl2-induced AAA (CaCl2-induced AAA; FIGS. 5A and 5B): Effective recovery
senescent cells, SA β-gal assay (CaCl2-induced AAA; FIGS. 5F and 5G): significantly reduced; also recorded: less effective than KD, KE and s-βHB
elastic laminar / vascular integrity (CaCl2-induced AAA; FIGS. 5H and 5I): improved vascular integrity
recovery rate of AAA (CaCl2-induced AAA; comparison between treatments, FIG. 5B): less effectiveness compared to s-βHB, KD, and KE treatment
AAA progression (CaCl2-induced AAA; post-treatment after four weeks, FIG. 5C): inhibited AAA progression
